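GI50 marks 50% less growth. TGI is the concentration that stops growth completely.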
What was measured:
Assay in all cases: growth of human tumour cells (NCI), 384-well format
SW-620 colon = system: SW-620 colon
K-562 leukemia = system: K-562 leukemia
A549 NSCLC = system: A549 NSCLC
HCC-2998 colon = system: HCC-2998 colon
MDA-MB-435 melanoma = system: MDA-MB-435 melanoma
U251 glioblastoma = system: U251 glioblastoma
HT29 colon = system: HT29 colon
MALME-3M melanoma = system: MALME-3M melanoma
COLO 205 colon = system: COLO 205 colon
NCI-H522 lung = system: NCI-H522 lung
MCF7 breast = system: MCF7 breast
SN12C renal = system: SN12C renal
CCRF-CEM leukemia = system: CCRF-CEM leukemia
HOP-92 NSCLC = system: HOP-92 NSCLC
NCI-H23 lung = system: NCI-H23 lung
SF-268 CNS = system: SF-268 CNS
M14 melanoma = system: M14 melanoma
RXF 393 renal = system: RXF 393 renal
NCI/ADR-RES ovarian = system: NCI/ADR-RES ovarian
OVCAR-4 ovarian = system: OVCAR-4 ovarian
SF-295 CNS = system: SF-295 CNS
SNB-75 CNS = system: SNB-75 CNS
PC-3 prostate = system: PC-3 prostate
MOLT-4 leukemia = system: MOLT-4 leukemia
786-0 renal = system: 786-0 renal
DU-145 prostate = system: DU-145 prostate
SR leukemia = system: SR leukemia
OVCAR-3 ovarian = system: OVCAR-3 ovarian
NCI-H322M lung = system: NCI-H322M lung
OVCAR-5 ovarian = system: OVCAR-5 ovarian
SNB-19 CNS = system: SNB-19 CNS
HS 578T breast = system: HS 578T breast
MDA-MB-468 breast = system: MDA-MB-468 breast
NCI-H226 lung = system: NCI-H226 lung
SF-539 CNS = system: SF-539 CNS
CAKI-1 renal = system: CAKI-1 renal
TK-10 renal = system: TK-10 renal
SK-MEL-5 melanoma = system: SK-MEL-5 melanoma
BT-549 breast = system: BT-549 breast
NCI-H460 NSCLC = system: NCI-H460 NSCLC
UO-31 renal = system: UO-31 renal
HCT-15 colon = system: HCT-15 colon
KM12 colon = system: KM12 colon
T-47D breast = system: T-47D breast
A498 renal = system: A498 renal
RPMI-8226 leukemia = system: RPMI-8226 leukemia
UACC-62 melanoma = system: UACC-62 melanoma
ACHN renal = system: ACHN renal
HL-60(TB) leukemia = system: HL-60(TB) leukemia
SK-OV-3 ovarian = system: SK-OV-3 ovarian
MDA-MB-231 breast = system: MDA-MB-231 breast
SK-MEL-28 melanoma = system: SK-MEL-28 melanoma
OVCAR-8 ovarian = system: OVCAR-8 ovarian
LOX IMVI melanoma = system: LOX IMVI melanoma
IGROV1 ovarian = system: IGROV1 ovarian
HOP-62 NSCLC = system: HOP-62 NSCLC

Cc1cc2c(F)c(Oc3ncnn4cc(OC[C@@H](C)OC(=O)[C@H](C)N)c(C)c34)ccc2[nH]1
GI50 (SW-620 colon): 4.96 µM | TGI (SW-620 colon): 17.7 µM | GI50 (K-562 leukemia): 1.04 µM | TGI (K-562 leukemia): 3.18 µM | GI50 (A549 NSCLC): 4.99 µM | TGI (A549 NSCLC): 17.7 µM | GI50 (HCC-2998 colon): 3.59 µM | GI50 (MDA-MB-435 melanoma): 7.77 µM | GI50 (U251 glioblastoma): 3.67 µM | GI50 (HT29 colon): 2.77 µM | TGI (HT29 colon): 12 µM | GI50 (MALME-3M melanoma): 2.07 µM | TGI (MALME-3M melanoma): 12.5 µM | GI50 (COLO 205 colon): 0.847 µM | TGI (COLO 205 colon): 12.7 µM | GI50 (NCI-H522 lung): 4.57 µM | GI50 (MCF7 breast): 3.45 µM | TGI (MCF7 breast): 16.7 µM | GI50 (SN12C renal): 4.53 µM | GI50 (CCRF-CEM leukemia): 1.84 µM | TGI (CCRF-CEM leukemia): 6.14 µM | GI50 (HOP-92 NSCLC): 4.17 µM | TGI (HOP-92 NSCLC): 17.3 µM | GI50 (NCI-H23 lung): 10.1 µM | TGI (NCI-H23 lung): 21.7 µM | GI50 (SF-268 CNS): 3.4 µM | TGI (SF-268 CNS): 16.8 µM | GI50 (M14 melanoma): 4.9 µM | TGI (M14 melanoma): 17.4 µM | GI50 (RXF 393 renal): 3.75 µM | TGI (RXF 393 renal): 14.2 µM | GI50 (NCI/ADR-RES ovarian): 3.52 µM | GI50 (OVCAR-4 ovarian): 7.98 µM | GI50 (SF-295 CNS): 3.24 µM | TGI (SF-295 CNS): 12.8 µM | GI50 (SNB-75 CNS): 4.41 µM | TGI (SNB-75 CNS): 17.1 µM | GI50 (PC-3 prostate): 3.17 µM | GI50 (MOLT-4 leukemia): 0.272 µM | TGI (MOLT-4 leukemia): 0.612 µM | GI50 ([…]-0 renal): 3.54 µM | GI50 (DU-145 prostate): 3.74 µM | GI50 (SR leukemia): 0.0548 µM | TGI (SR leukemia): 0.241 µM | GI50 (OVCAR-3 ovarian): 6.03 µM | GI50 (NCI-H322M lung): 7.3 µM | TGI (NCI-H322M lung): 19.7 µM | GI50 (OVCAR-5 ovarian): 8.29 µM | GI50 (SNB-19 CNS): 5.13 µM | GI50 (HS 578T breast): 6.21 µM | TGI (HS 578T breast): 17.7 µM | GI50 (MDA-MB-468 breast): 2.16 µM | TGI (MDA-MB-468 breast): 5.55 µM | GI50 (NCI-H226 lung): 4.33 µM | TGI (NCI-H226 lung): 18 µM | GI50 (SF-539 CNS): 2.25 µM | TGI (SF-539 CNS): 10.9 µM | GI50 (CAKI-1 renal): 3.65 µM | TGI (CAKI-1 renal): 16.4 µM | GI50 (TK-10 renal): 2.27 µM | GI50 (SK-MEL-5 melanoma): 0.984 µM | GI50 (BT-549 breast): 3.65 µM | TGI (BT-549 breast): 15.3 µM | GI50 (NCI-H460 NSCLC): 0.643 µM | TGI (NCI-H460 NSCLC): 4.37 µM | GI50 (UO-31 renal): 6.25 µM | GI50 (HCT-15 colon): 0.914 µM | TGI (HCT-15 colon): 3.46 µM | GI50 (KM12 colon): 3.17 µM | TGI (KM12 colon): 13.8 µM | GI50 (T-47D breast): 3.34 µM | GI50 (A498 renal): 5.04 µM | GI50 (RPMI-8226 leukemia): 0.467 µM | TGI (RPMI-8226 leukemia): 1.94 µM | GI50 (UACC-62 melanoma): 3.13 µM | TGI (UACC-62 melanoma): 17.5 µM | GI50 (ACHN renal): 2.97 µM | GI50 (HL-60(TB) leukemia): 1.04 µM | TGI (HL-60(TB) leukemia): 3.2 µM | GI50 (SK-OV-3 ovarian): 5.13 µM | GI50 (MDA-MB-231 breast): 1.82 µM | TGI (MDA-MB-231 breast): 18.2 µM | GI50 (SK-MEL-28 melanoma): 3.29 µM | TGI (SK-MEL-28 melanoma): 17.5 µM | GI50 (OVCAR-8 ovarian): 4.41 µM | TGI (OVCAR-8 ovarian): 17.2 µM | GI50 (LOX IMVI melanoma): 1.43 µM | TGI (LOX IMVI melanoma): 3.81 µM | GI50 (IGROV1 ovarian): 4.71 µM | GI50 (HOP-62 NSCLC): 6.64 µM | TGI (HOP-62 NSCLC): 20.3 µM
